In one series the target is T1, RXRα:PPARα heterodimer (Homo sapiens, UniProt P19793).
T1 sequence (P19793 1-462): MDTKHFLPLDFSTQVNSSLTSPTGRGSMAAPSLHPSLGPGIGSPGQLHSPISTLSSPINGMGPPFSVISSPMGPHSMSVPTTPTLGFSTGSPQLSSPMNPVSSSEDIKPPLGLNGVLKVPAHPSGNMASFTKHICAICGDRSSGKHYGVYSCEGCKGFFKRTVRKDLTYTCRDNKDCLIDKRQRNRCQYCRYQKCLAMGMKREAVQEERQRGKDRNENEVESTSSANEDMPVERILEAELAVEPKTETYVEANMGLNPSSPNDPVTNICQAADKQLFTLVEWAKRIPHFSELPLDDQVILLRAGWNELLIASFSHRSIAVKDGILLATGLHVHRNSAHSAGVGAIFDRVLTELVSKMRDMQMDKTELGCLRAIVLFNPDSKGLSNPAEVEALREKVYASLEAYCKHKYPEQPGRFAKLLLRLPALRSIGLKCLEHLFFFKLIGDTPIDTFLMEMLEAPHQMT
T1 sequence (Q07869 1-468 partner): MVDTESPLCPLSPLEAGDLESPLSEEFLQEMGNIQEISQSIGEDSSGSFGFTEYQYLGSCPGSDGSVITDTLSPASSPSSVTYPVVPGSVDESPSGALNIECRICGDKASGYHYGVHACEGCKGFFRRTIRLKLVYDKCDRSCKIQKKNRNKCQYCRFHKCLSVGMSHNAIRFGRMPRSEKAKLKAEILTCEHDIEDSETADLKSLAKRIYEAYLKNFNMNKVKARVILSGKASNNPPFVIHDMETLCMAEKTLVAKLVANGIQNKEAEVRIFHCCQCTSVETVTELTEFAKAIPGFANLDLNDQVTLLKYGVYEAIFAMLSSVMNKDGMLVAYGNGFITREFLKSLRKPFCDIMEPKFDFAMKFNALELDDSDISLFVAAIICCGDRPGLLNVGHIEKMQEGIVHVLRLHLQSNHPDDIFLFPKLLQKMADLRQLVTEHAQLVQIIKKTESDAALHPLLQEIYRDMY
The series can be described thus: RXR heterodimer co-transfection assay (RXRα and PPARα, PPARα response element reporter). To be noted: for Fold activation: normalized luciferase values at 10−5M divided by values with vehicle.

A further series has as its target T2, RXRγ (Mus musculus, UniProt P28705).
T2 sequence (P28705 1-463): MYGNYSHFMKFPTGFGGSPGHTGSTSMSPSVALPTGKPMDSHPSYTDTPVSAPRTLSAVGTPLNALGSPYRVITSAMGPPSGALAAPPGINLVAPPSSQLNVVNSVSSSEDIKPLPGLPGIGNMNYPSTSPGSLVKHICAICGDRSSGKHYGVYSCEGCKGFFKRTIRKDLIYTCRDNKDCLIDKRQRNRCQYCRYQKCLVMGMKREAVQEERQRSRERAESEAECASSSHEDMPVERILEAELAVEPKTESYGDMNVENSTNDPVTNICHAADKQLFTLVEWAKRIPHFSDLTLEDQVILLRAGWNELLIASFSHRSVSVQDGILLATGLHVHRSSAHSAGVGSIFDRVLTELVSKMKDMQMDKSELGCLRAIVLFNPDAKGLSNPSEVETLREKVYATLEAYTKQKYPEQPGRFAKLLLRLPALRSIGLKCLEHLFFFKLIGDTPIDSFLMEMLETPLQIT
The series can be described thus: RXR binding, RXRγ. To be noted: -v- tritiated LGD1069 and tritiated 9-cis retinoic acid.

In another series the target is T3, RXR:RXR homodimer (Homo sapiens, UniProt P19793).
T3 sequence (P19793 1-462): T1 sequence (P19793 1-462)
The series can be described thus: RXR homodimer co-transfection assay (FIG. 1). To be noted: in the presence of known RXR activators (LGD1069, LG100268, 9-cis retinoic acid).

The target in the next series is T4, RXRα (Homo sapiens, UniProt P19793).
T4 sequence (P19793 1-462): T1 sequence (P19793 1-462)
As to the kind of experiment: RXR binding, RXRα. To be noted: -v- tritiated LGD1069 and tritiated 9-cis retinoic acid.

The next series deals with T5, RXRβ (Mus musculus, UniProt P28704).
T5 sequence (P28704 1-520): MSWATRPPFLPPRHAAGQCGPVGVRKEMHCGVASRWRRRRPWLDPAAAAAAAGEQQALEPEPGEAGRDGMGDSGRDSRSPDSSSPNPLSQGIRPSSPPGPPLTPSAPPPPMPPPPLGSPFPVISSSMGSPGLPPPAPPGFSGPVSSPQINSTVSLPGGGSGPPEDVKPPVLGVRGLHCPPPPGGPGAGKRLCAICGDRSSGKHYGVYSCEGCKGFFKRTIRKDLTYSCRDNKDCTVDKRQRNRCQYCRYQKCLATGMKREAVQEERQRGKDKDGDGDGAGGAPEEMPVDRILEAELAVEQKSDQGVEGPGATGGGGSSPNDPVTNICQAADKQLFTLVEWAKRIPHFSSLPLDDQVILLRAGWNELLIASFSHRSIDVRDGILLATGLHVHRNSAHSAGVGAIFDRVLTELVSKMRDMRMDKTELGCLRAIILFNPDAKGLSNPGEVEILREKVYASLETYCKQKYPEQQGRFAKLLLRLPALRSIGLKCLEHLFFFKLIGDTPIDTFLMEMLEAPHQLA
The series can be described thus: RXR binding, RXRβ. To be noted: -v- tritiated LGD1069 and tritiated 9-cis retinoic acid.

Another series addresses T6, RXRα:RXRα homodimer (Homo sapiens, UniProt P19793).
T6 sequence (P19793 227-458 limits assumed): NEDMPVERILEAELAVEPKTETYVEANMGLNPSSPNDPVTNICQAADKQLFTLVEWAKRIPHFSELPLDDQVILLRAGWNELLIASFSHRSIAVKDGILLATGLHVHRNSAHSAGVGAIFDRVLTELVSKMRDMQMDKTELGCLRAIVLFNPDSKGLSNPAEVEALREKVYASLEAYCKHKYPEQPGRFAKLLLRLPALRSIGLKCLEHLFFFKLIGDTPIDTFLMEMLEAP
The series can be described thus: Gal4-receptor chimera transactivation assay, RXR homodimer. To be noted: for Fold activation: CV-1 cells, 100 nM LG100268, LGD1069, n.e. = no effect; for Fold activation / Fold Repression: 500 nM Compounds 117, 122, 130, 1 mM Compound 131; for agonist activity on RXR homodimers in the GAL4 transfection assay (in words): compound alone; for antagonist activity on RXR homodimers in the GAL4 transfection assay (in words) / Fold Repression: in combination with either LGD1069 or LG100268.

A further series concerns the target T7, RXRα:RARα heterodimer (Homo sapiens, UniProt P19793).
T7 sequence (P19793 227-458 limits assumed): T6 sequence (P19793 227-458 limits assumed)
T7 sequence (P10276 183-417 partner limits assumed): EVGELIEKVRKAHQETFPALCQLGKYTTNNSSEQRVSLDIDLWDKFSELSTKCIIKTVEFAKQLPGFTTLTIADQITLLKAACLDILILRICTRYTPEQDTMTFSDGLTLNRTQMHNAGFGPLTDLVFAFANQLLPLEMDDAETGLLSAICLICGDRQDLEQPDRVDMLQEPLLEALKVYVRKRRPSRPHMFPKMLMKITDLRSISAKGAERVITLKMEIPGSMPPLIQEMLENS
The series can be described thus: Gal4-receptor chimera transactivation assay, RXRα:RARα heterodimer. To be noted: for effect on RXRα:RARα heterodimer in combination with TTNPB (in words): combined with the RXR:RAR activator TTNPB, data not shown; for agonist activity on RXRα:RARα heterodimers (in words): compound alone.

pEC50, pKd: −log10 of the molar value.

Method for RXRα:RARα heterodimer: (§1) Briefly, CV-1 cells were transfected in 12 well multi-well plates using 0.1 μg of each receptor and 0.5 μg of reporter per well. Each well was also transfected with 0.5 μg of the β-Gal expression plasmid as an internal control for transfection efficiency. Total plasmid per well was 2 μg made up using the plasmid pGEM. […] Receptor ligand binding domains (LBDs) were fused in-frame downstream to the Gal4 cDNA to produce Gal4-receptor fusion proteins. To express only the receptor LBDs, the LBD was cloned directly downstream to the CMV promoter.
Cells were then washed 2X with PBS and lysed using Promega lysis buffer and assayed for luciferase activity and β-galactosidase activity. All results were normalized against β-Gal.
The above assay system was used because reporter activity is dependent upon the binding of the Gal4 DNA binding domain to copies of its binding site, the UAS (upstream activation sequence), located upstream of the luciferase cDNA. […] Since endogenous receptors lack the Gal4 DNA binding domain, no background activation of the reporter is observed, however, Gal4-receptor LBD fusion proteins can bind the Gal4 site and be activated in a receptor ligand dependent manner. This system, therefore, completely eliminates the low background activity of endogenous receptors in CV-1 cells making it possible to test compound activity on exogenously added receptors.
Method for RXRα:RXRα homodimer: as §1
Cells were then washed 2X with PBS and lysed using Promega lysis buffer and assayed for luciferase activity and β-galactosidase activity. All results were normalized against β-Gal. Each set was done in triplicates and each experiment was carried out at least 3 separate times with similar results.

On to `CC1(C)CCC(C)(C)c2cc(C(=NO)c3ccc(C(=O)O)cc3)c(OCc3ccccc3)cc21` [Compound 117, cis-4-[(3-benzyloxy-5,6,7,8-tetrahydro-5,5,8,8-tetramethyl-2-naphthyl)carbonyl]benzoic acid oxime], for which the melting point was 199 to 205 °C (dec.). On RXRα:PPARα heterodimer, the pEC50 is 6.05 and the Fold activation is given as 9 fold. The compound also showed a pKd on RXRγ of 7.77. Further, the “antagonism of RXR homodimer transactivation (in words)” value at RXR:RXR homodimer is on record as “function as antagonists”. Moreover, on RXRα, the pKd is 8.52. In addition, at RXRβ, the pKd was 7.77. Besides, at RXRα:RXRα homodimer, the “Fold activation” value is “n.e”, the “agonist activity on RXR homodimers in the GAL4 transfection assay (in words)” value is “inactive”, the “antagonist activity on RXR homodimers in the GAL4 transfection assay (in words)” value is reported as “moderate antagonist” and the “Fold Repression” value is 1.5 fold. The “Fold Repression” value on RXRα:RARα heterodimer (CV-1 cells, 500 nM Compound 117, in combination with TTNPB) amounted to 1.4 fold. Moreover, at RXRα:RARα heterodimer, the “effect on RXRα:RARα heterodimer in combination with TTNPB (in words)” value is listed as “weak repressor” and the “agonist activity on RXRα:RARα heterodimers (in words)” value was “inactive”.

As to `CC1(C)CCC(C)(C)c2cc3c(cc21)CCC=C3Cc1ccc(C(=O)O)cc1` [Compound 131, 4-(3,4,5,6,7,8-hexahydro-5,5,8,8-tetramethyl-anthracen-1-ylmethyl)benzoic acid], at RXRα:PPARα heterodimer, the pEC50 is 6.10 and the Fold activation was 7 fold. The same compound showed a pKd on RXRγ of 6.97. Besides, the “antagonism of RXR homodimer transactivation (in words)” value on RXR:RXR homodimer is listed as “function as antagonists”. The pKd on RXRα is 6.85. In addition, the pKd at RXRβ is 6.98. At RXRα:RXRα homodimer, the “Fold activation” value is reported as “n.e”, the “agonist activity on RXR homodimers in the GAL4 transfection assay (in words)” value was “inactive”, the “antagonist activity on RXR homodimers in the GAL4 transfection assay (in words)” value is given as “weak antagonist” and the “Fold Repression” value was found to be 1.3 fold. On RXRα:RARα heterodimer, the “effect on RXRα:RARα heterodimer in combination with TTNPB (in words)” value is reported as “slight increase in activation” and the “agonist activity on RXRα:RARα heterodimers (in words)” value was “potent agonists”.

The record behind these values is patent US6545049B1, “Dimer-selective RXR modulators and methods for their use” (Ligand Pharmaceuticals Incorporated, priority 1995, dated 2003).
